Measured values from US20220087969A1, “METHOD FOR TREATING ASTHMA” (Olatec Therapeutics LLC, priority 2019, published 2022).

Assays:
[1] = test system: OVA-induced allergic airway inflammation; experiment: Goblet cells covering airway mucosa, OVA model, oral dapansutrile in food; assay type: in vivo, mice
Experimental: (§1) The experimental protocols of the mouse model were the same as those described in Example 1, except dapansutrile was administered orally by food. The already-sensitized mice were fed ad libidum with food pellets containing 7.5 g/kg dapansutrile starting on day 22 for one week; the first aerosol challenge was on day 26. Mice typically consume about 4 g of food per day, resulting in an approximate daily dose of 0 mg/kg/day for control groups and 1,000 mg/kg/day for the treatment groups. […] OVA-sensitized, OVA-challenged asthmatic controls (asthmatic) were fed with control food pellets without dapansutrile. […] (data not shown).

[2] = Blood level in mice fed dapansutrile food pellets; assay type: in vivo, mouse; conditions: 7.5 g/kg dapansutrile in food, nearly the same as the human level
Experimental: The already-sensitized mice were fed ad libidum with food pellets containing 7.5 g/kg dapansutrile starting on day 22 for one week; the first aerosol challenge was on day 26. Mice typically consume about 4 g of food per day, resulting in an approximate daily dose of 0 mg/kg/day for control groups and 1,000 mg/kg/day for the treatment groups.

[3] = test system: OVA-induced allergic airway inflammation; experiment: Goblet cells covering airway mucosa (PAS sections, stereology), OVA model, i.p. dapansutrile; assay type: in vivo, C57BL/6j mice; conditions: treated mice, 60 mg/kg i.p.; asthmatic 22.74%; p<0.01
Experimental: C57BL/6j mice were sensitized to OVA (ovalbumin) by three intraperitoneal (i.p.) injections of 10 μg OVA adsorbed to 150 mg aluminum hydroxide on days 1, 14, and 21. This sensitization results in an adoptive immune response against OVA with OVA-specific TH2 cells and the production of OVA-specific antibodies of the subclasses IgE and […]. To induce acute allergic airway inflammation, mice were exposed three times to an OVA aerosol (1% w/v in PBS) on days 26, 27, and 28. Healthy control animals (healthy group) were sham sensitized to PBS and subsequently challenged with PBS aerosol. […] The following readouts were measured according to Lunding, 2015b. • General infiltration of inflammatory cells into the broncheoalveolar lumen • Determination of the specific infiltration of eosinophils, neutrophils and lymphocytes by histologic differentiation of the bronchoalveolar lavage (BAL) cells. • Goblet cell hyperplasia by CAST system (Computer Assisted Stereological Toolbox), including making microscopic pictures of the airways. • Airway resistance in response to methacholine to determine the airway hyperresponsiveness. Specifically, inflammatory cell subpopulations (eosinophils, macrophages, neutrophils, lymphocytes) infiltrating the bronchoalveolar lumen were quantified using cyto-spinned and quick-diff-stained cells from bronchoalveolar lavage fluids (BALF). […]

[4] = test system: OVA-induced allergic airway inflammation; experiment: Airway resistance in response to MCh, OVA model, oral dapansutrile in food; assay type: in vivo, mice; conditions: 100 mg/mL MCh
Experimental: as §1, with “Baseline airway resistance of healthy animals was 2.58 cm H2O·s/mL at 100 mg/mL MCh.” for “(data not shown).”

blood level [2]: ~40000 ng/mL
Structure (SMILES): CS(=O)(=O)CCC#N [dapansutrile, 3-methanesulfonylpropionitrile]
change of goblet cells covering the airway mucosa ([1]; oral, 7.5 g/kg in food, vs asthmatic mice): −29%
goblet cells covering the airway mucosa ([1]; treated mice, oral 7.5 g/kg in food, asthmatic 15.75%): 11.16%
area of epithelial basal membrane covered by goblet cells [3]: 17.67%
reduction of airway resistance in response to MCh ([4]; oral, 7.5 g/kg in food, vs sham-treated asthmatic controls, p<0.01): approximately 60%
airway resistance in response to MCh ([4]; treated mice, oral 7.5 g/kg in food, asthmatic 4.57, healthy 2.58): 3.38 cm H2O·s/mL
